Experimental data published in the supplement of paper PMC11208160.

Experiment: recombinant barcode read abundance after kanamycin selection (control-corrected) (log10(CPM+1)); higher = more efficient recombination; sequences stand for … in AGTGCAGAGAAAATCGGCCAGTTTTCTCTGCCTGCAGTCCGCATGCCGT…AGATTTATGCAGCGGACTGCCTTTCTCCCAAAGTGATAAACCGGACAGTATCATGGACCGGTTTTCCCGGTAATCCGTATTTGCAAGGTTGGTTTCACT; site = the 11-nt target
Summary of the method: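 In E. coli, a pooled library matched targets to IS621 bridge RNA target-binding loops and was introduced alongside a donor plasmid. Cells went onto chloramphenicol/ampicillin/kanamycin with 0.1 mM IPTG or onto chloramphenicol/ampicillin LB agar as control, in duplicate. Recombination efficiency, from recombinant-junction barcodes as counts per million, is averaged and control-corrected. It is reported as log10(CPM+1).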
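Further: IS621 recombinase and bridge RNA in Escherichia coli cells.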

First: GTTCGGACTTGGGTTCTAACCTGTTGCGG (site GTTCGGACTCC)
Second: GTTGCGGCTTGGGTTCTAACCTGTTGCCT (site GTTACGGCTAG)
The “recombinant barcode read abundance (log10)” value of the first is higher: 2.69 for the first, 0.44 for the second.

Going from “GTTGCGGCTTGGGTTCTAACCTGTTGCCT (site GTTCCGGCTAG)” to “GTTGCGGCTTGGGTTCTAACCTGTTGCCT (site GTTGCGGCTAG)”, the “recombinant barcode read abundance (log10)” value rises from 0.0471 to 0.898.

First: GTTGCGGCTTGGGTTCTAACCTGTTGCCT (site GTTTCGGCTAG)
Second: GTTGGAGCTTGGGTTCTAACCTGTTGCAG (site GTTGGAGCTCT)
The “recombinant barcode read abundance (log10)” value of the first is lower: 0.34 for the first, 2.24 for the second.

Compared with “GTTGGAGCTTGGGTTCTAACCTGTTGCAG (site TATGGAGCTCT)”, “GTTGGAGCTTGGGTTCTAACCTGTTGCCT (site GTTAGAGCTAG)” is higher in “recombinant barcode read abundance (log10)” value: 0.146 for the first, 1.97 for the second.

Going from “GTTGGAGCTTGGGTTCTAACCTGTTGCCT (site GTTCGAGCTAG)” to “GTTGGAGCTTGGGTTCTAACCTGTTGCCT (site GTTGGAGCTAG)”, the “recombinant barcode read abundance (log10)” value rises from 0.487 to 2.35.

“GTTGGAGCTTGGGTTCTAACCTGTTGCCT (site GTTTGAGCTAG)” and “GTTTAGTCTTGGGTTCTAACCTGTTGCCT (site GTTTAATCTAG)” are within 0.2 log units of each other in “recombinant barcode read abundance (log10)” value: 0.304 for the first, 0.159 for the second.

Compared with “GTTTAGTCTTGGGTTCTAACCTGTTGCCT (site GTTTAGTCTAG)”, “GTTTATACTTGGGTTCTAACCTGTTGCGT (site GATGATACTAC)” is lower in “recombinant barcode read abundance (log10)” value: 1.01 for the first, 0.0203 for the second.

First: GTTTATACTTGGGTTCTAACCTGTTGCGT (site GTTTATACTAC)
Second: GTTTCAACTTGGGTTCTAACCTGTTGCCA (site CAACACCCTAT)
The “recombinant barcode read abundance (log10)” value of the first is higher: 0.749 for the first, 0.0582 for the second.

“GTTTCAACTTGGGTTCTAACCTGTTGCCA (site GTTTCAACTTG)” and “GTTTCAACTTGGGTTCTAACCTGTTGCGT (site AAGAACTCTCG)” are within 0.2 log units of each other in “recombinant barcode read abundance (log10)” value: 0.061 for the first, 0.18 for the second.

Going from “GTTTCAACTTGGGTTCTAACCTGTTGCGT (site GTTTCAACTAC)” to “GTTTCCTCTTGGGTTCTAACCTGTTGCCG (site GGATCCTCTCG)”, the “recombinant barcode read abundance (log10)” value falls from 0.729 to 0.251.

Compared with “GTTTCCTCTTGGGTTCTAACCTGTTGCCG (site GTTTCCTCTCG)”, “GTTTGACCTTGGGTTCTAACCTGTTGCTT (site GTTTGACCTAA)” is lower in “recombinant barcode read abundance (log10)” value: 0.78 for the first, 0.532 for the second.

“GTTTGACCTTGGGTTCTAACCTGTTGCTT (site GTTTGCCCTAA)” and “GTTTGACCTTGGGTTCTAACCTGTTGCTT (site GTTTGGCCTAA)” are within 0.2 log units of each other in “recombinant barcode read abundance (log10)” value: 0.229 for the first, 0.171 for the second.

“GTTTGACCTTGGGTTCTAACCTGTTGCTT (site GTTTGTCCTAA)” and “GTTTGGACTTGGGTTCTAACCTGTTGCTA (site GTTTGGACTCA)” are within 0.2 log units of each other in “recombinant barcode read abundance (log10)” value: 0.0874 for the first, 0.178 for the second.

Going from “GTTTGGACTTGGGTTCTAACCTGTTGCTA (site GTTTGGACTTA)” to “GTTTGGTCTTGGGTTCTAACCTGTTGCCT (site GTTTGATCTAG)”, the “recombinant barcode read abundance (log10)” value falls from 0.904 to 0.285.

First: GTTTGGTCTTGGGTTCTAACCTGTTGCCT (site GTTTGCTCTAG)
Second: GTTTGGTCTTGGGTTCTAACCTGTTGCCT (site GTTTGGTCTAG)
The “recombinant barcode read abundance (log10)” value of the first is lower: 0.0727 for the first, 0.405 for the second.

“GTTTGGTCTTGGGTTCTAACCTGTTGCCT (site GTTTGTTCTAG)” and “GTTTGTTCTTGGGTTCTAACCTGTTGCCT (site GTTTGATCTAG)” are within 0.2 log units of each other in “recombinant barcode read abundance (log10)” value: 0.0972 for the first, 0.0239 for the second.

“GTTTGTTCTTGGGTTCTAACCTGTTGCCT (site GTTTGCTCTAG)” and “GTTTGTTCTTGGGTTCTAACCTGTTGCCT (site GTTTGGTCTAG)” are within 0.2 log units of each other in “recombinant barcode read abundance (log10)” value: 0.0623 for the first, 0.237 for the second.

“GTTTGTTCTTGGGTTCTAACCTGTTGCCT (site GTTTGTTCTAG)” and “TAAACAGCTTGGGTTCTAACCTGTTGCCT (site TAAACAGCTAG)” are within 0.2 log units of each other in “recombinant barcode read abundance (log10)” value: 0.254 for the first, 0.0976 for the second.

“TAAACAGCTTGGGTTCTAACCTGTTGCCT (site TACACAGCTAG)” and “TAAACAGCTTGGGTTCTAACCTGTTGCCT (site TAGACAGCTAG)” are within 0.2 log units of each other in “recombinant barcode read abundance (log10)” value: 0.00929 for the first, 0.171 for the second.

First: TAAACAGCTTGGGTTCTAACCTGTTGCCT (site TATACAGCTAG)
Second: TAAAGAGCTTGGGTTCTAACCTGTTGCGG (site TAAAGAGCTCC)
The “recombinant barcode read abundance (log10)” value of the first is lower: 0.0779 for the first, 1.57 for the second.

“TAAAGAGCTTGGGTTCTAACCTGTTGCGG (site TACAGAGCTCC)” and “TAAAGAGCTTGGGTTCTAACCTGTTGCGG (site TAGAGAGCTCC)” are within 0.2 log units of each other in “recombinant barcode read abundance (log10)” value: 0.153 for the first, 0.109 for the second.

First: TAAAGAGCTTGGGTTCTAACCTGTTGCGG (site TATAGAGCTCC)
Second: TAACCCACTTGGGTTCTAACCTGTTGCCT (site TAACCCACTAG)
The “recombinant barcode read abundance (log10)” value of the first is lower: 0.236 for the first, 1.1 for the second.

First: TAACCCACTTGGGTTCTAACCTGTTGCCT (site TTACGCACTAG)
Second: TAACCTACTTGGGTTCTAACCTGTTGCAT (site TAACATACTAT)
The “recombinant barcode read abundance (log10)” value of the first is higher: 0.334 for the first, 0.0358 for the second.

Compared with “TAACCTACTTGGGTTCTAACCTGTTGCAT (site TAACCTACTAT)”, “TAACCTACTTGGGTTCTAACCTGTTGCAT (site TAACGTACTAT)” is lower in “recombinant barcode read abundance (log10)” value: 0.802 for the first, 0.169 for the second.

Going from “TAACCTACTTGGGTTCTAACCTGTTGCAT (site TAACTTACTAT)” to “TAACGATCTTGGGTTCTAACCTGTTGCAT (site TAACGATCTAT)”, the “recombinant barcode read abundance (log10)” value rises from 0.0519 to 0.497.

Going from “TAACGATCTTGGGTTCTAACCTGTTGCAT (site TAACGGTCTAA)” to “TAACGGTCTTGGGTTCTAACCTGTTGCTT (site TAACGATCTAT)”, the “recombinant barcode read abundance (log10)” value rises from 0.0405 to 0.44.

Going from “TAACGGTCTTGGGTTCTAACCTGTTGCTT (site TAACGGTCTAA)” to “TAACGTACTTGGGTTCTAACCTGTTGCGG (site TAACGTACTCC)”, the “recombinant barcode read abundance (log10)” value rises from 1.09 to 1.41.

Compared with “TAACGTACTTGGGTTCTAACCTGTTGCGG (site TAACGTCCTAC)”, “TAACTCTCTTGGGTTCTAACCTGTTGCCT (site TAACTCTCTAG)” is higher in “recombinant barcode read abundance (log10)” value: 0.113 for the first, 1.05 for the second.

“TAACTCTCTTGGGTTCTAACCTGTTGCCT (site TCACTCTCTAG)” and “TAACTCTCTTGGGTTCTAACCTGTTGCCT (site TGACTCTCTAG)” are within 0.2 log units of each other in “recombinant barcode read abundance (log10)” value: 0.0372 for the first, 0.0157 for the second.

“TAACTCTCTTGGGTTCTAACCTGTTGCCT (site TTACTCTCTAG)” and “TAACTGTCTTGGGTTCTAACCTGTTGCTT (site CCGTCTACTTG)” are within 0.2 log units of each other in “recombinant barcode read abundance (log10)” value: 0.145 for the first, 0.121 for the second.

Going from “TAACTGTCTTGGGTTCTAACCTGTTGCTT (site TAACTGTCTAA)” to “TAACTTACTTGGGTTCTAACCTGTTGCCT (site TAACTTACTAG)”, the “recombinant barcode read abundance (log10)” value falls from 1.74 to 0.185.

First: TAACTTACTTGGGTTCTAACCTGTTGCCT (site TAGCTTACTCG)
Second: TAAGCCTCTTGGGTTCTAACCTGTTGCTG (site TAAGCCTCTCA)
The “recombinant barcode read abundance (log10)” value of the first is lower: 0.0408 for the first, 2.54 for the second.

“TAAGCCTCTTGGGTTCTAACCTGTTGCTG (site TAAGCTACTCA)” and “TAAGGTCCTTGGGTTCTAACCTGTTGCTA (site GGAGGTCCTTA)” are within 0.2 log units of each other in “recombinant barcode read abundance (log10)” value: 0 for the first, 0.0326 for the second.

Compared with “TAAGGTCCTTGGGTTCTAACCTGTTGCTA (site TAAGGTCCTTA)”, “TAATCGGCTTGGGTTCTAACCTGTTGCCT (site TAATCGACTAG)” is lower in “recombinant barcode read abundance (log10)” value: 1.81 for the first, 0.0571 for the second.

Compared with “TAATCGGCTTGGGTTCTAACCTGTTGCCT (site TAATCGCCTAG)”, “TAATCGGCTTGGGTTCTAACCTGTTGCCT (site TAATCGGCTAG)” is higher in “recombinant barcode read abundance (log10)” value: 0.0352 for the first, 0.453 for the second.

“TAATCGGCTTGGGTTCTAACCTGTTGCCT (site TAATCGTCTAG)” and “TAATCGTCTTGGGTTCTAACCTGTTGCCT (site TAATCGACTAG)” are within 0.2 log units of each other in “recombinant barcode read abundance (log10)” value: 0.111 for the first, 0.0844 for the second.

“TAATCGTCTTGGGTTCTAACCTGTTGCCT (site TAATCGCCTAG)” and “TAATCGTCTTGGGTTCTAACCTGTTGCCT (site TAATCGGCTAG)” are within 0.2 log units of each other in “recombinant barcode read abundance (log10)” value: 0.0275 for the first, 0.0826 for the second.

First: TAATCGTCTTGGGTTCTAACCTGTTGCCT (site TAATCGTCTAG)
Second: TAATGATCTTGGGTTCTAACCTGTTGCCT (site TAATGATCTAG)
The “recombinant barcode read abundance (log10)” value of the first is higher: 1.84 for the first, 0.635 for the second.

“TAATGATCTTGGGTTCTAACCTGTTGCCT (site TACTGATCTAG)” and “TAATGATCTTGGGTTCTAACCTGTTGCCT (site TAGTGATCTAG)” are within 0.2 log units of each other in “recombinant barcode read abundance (log10)” value: 0.0744 for the first, 0.15 for the second.

Going from “TAATGATCTTGGGTTCTAACCTGTTGCCT (site TATTGATCTAG)” to “TAATGCCCTTGGGTTCTAACCTGTTGCCT (site TAATGCCCTAG)”, the “recombinant barcode read abundance (log10)” value rises from 0.155 to 0.634.

“TAATGCCCTTGGGTTCTAACCTGTTGCCT (site TATTGCCCTAG)” and “TAATGTTCTTGGGTTCTAACCTGTTGCAT (site TAATGGTCTAT)” are within 0.2 log units of each other in “recombinant barcode read abundance (log10)” value: 0.13 for the first, 0.0924 for the second.

First: TAATGTTCTTGGGTTCTAACCTGTTGCAT (site TAATGTTCTAT)
Second: TAATTGTCTTGGGTTCTAACCTGTTGCGT (site CAATTGTCTAC)
The “recombinant barcode read abundance (log10)” value of the first is higher: 1.14 for the first, 0.725 for the second.

First: TAATTGTCTTGGGTTCTAACCTGTTGCGT (site TAATTGTCTAC)
Second: TAATTTGCTTGGGTTCTAACCTGTTGCCT (site CGCGAGTCTCA)
The “recombinant barcode read abundance (log10)” value of the first is higher: 2.45 for the first, 0.215 for the second.
